# In US20090306218A1, “Antimicrobial formulations” (priority 2006, published 2009):
# Read-outs that look alike come from different tables or passages of the source.
# Key:
# [1] = system: Propionibacterium acnes NCTC 737; assay: Minimum inhibitory concentration (MIC) assay, liquid medium; type: cell-based; settings: for MIC: P. acnes NCTC 737
# Procedure: (§1) (a) Minimum Inhibitory Concentration (MIC) Assay
# (§2) This is a standard international method for quantitatively assessing the antimicrobial activity of a compound in a liquid medium. The method used a sterile 96-well microtitre plate, capable of holding about 200 μl of liquid per well. […] The culture medium was as described above.
# (§3) After incubation, the microtitre plate was examined visually (with the aid of a light box) for cloudiness in each well, which would indicate microbial growth. The MIC value was recorded as the lowest concentration of test compound required to inhibit microbial growth, i.e., the lowest concentration for which the liquid in the well remained clear.
# (§4) The assays were conducted in duplicate (minimum) and included both negative (culture medium with no micro-organisms) and positive (culture medium plus diluting solvent plus micro-organism) controls.
# (§5) MIC, MBC and DDA assays, as described above, were carried out using the test compound t-butyl-p-hydroquinone (TBHQ) and a range of bismuth salts (all ex-Sigma Aldrich, UK).
# [2] = system: Propionibacterium acnes NCTC 737; assay: Minimum bactericidal concentration (MBC) assay; type: cell-based; settings: P. acnes NCTC 737
# Procedure: (§6) (b) Minimum Bactericidal Concentration (MBC) Assay
# as §5
# [3] = system: Propionibacterium acnes NCTC 737; assay: Disc diffusion assay (DDA); type: cell-based; settings: P. acnes NCTC 737, 200 μg per disc
# Procedure: (d) Disc Diffusion Assay (DDA)
# This is an internationally recognised standard method for qualitatively assessing the antimicrobial activity of a compound.
# A sterile paper disc was impregnated with a sample of the test compound in a suitable solvent and 30 minutes allowed for the solvents to evaporate (where possible). The disc was then placed on an agar plate onto which the test micro-organism had been inoculated. The plate was then incubated under the conditions described above, following which it was examined visually for signs of microbial growth. […] The diameter of this zone of “inhibition” was measured using a ProtoCOL™ automated zone sizer (Synbiosis, Cambridge, UK).
# The TBHQ was dissolved in ethanol and the bismuth salts in DMSO.
# All the (S)DDA experiments were conducted in triplicate.
# DDA assays, as described above, were carried out using each of the test compounds individually. The quinone/bismuth salt combinations were then subjected to the SDDA assay described above.
# The quinones and bismuth salts were all dissolved in DMSO.
# [4] = system: P. acnes PRP panel strains; type: cell-based, Propionibacterium acnes; settings: for MIC: liquid medium
# [5] = system: P. granulosum panel strains; assay: MIC assay, liquid medium, panel of propionibacteria; type: cell-based, Propionibacterium granulosum
# [6] = system: P. acnes PRP panel strains; type: cell-based, Propionibacterium acnes; settings: 200 μg per disc
# [7] = system: P. granulosum panel strains; assay: Disc diffusion assay (DDA), panel of propionibacteria; type: cell-based, Propionibacterium granulosum; settings: 200 μg per disc
# [8] = system: Por. gingivalis NCTC 11834; assay: MIC assay, liquid medium; type: cell-based, Porphyromonas gingivalis
# Procedure: as §1, §2, §3, §4
# (§7) MIC and MBC assays, as described above, were carried out using the test compounds t-butyl-p-hydroquinone (TBHQ) and bismuth subsalicylate (both ex-Sigma Aldrich). The TBHQ was dissolved in ethanol and the bismuth subsalicylate in DMSO. All the experiments were conducted in triplicate.
# [9] = system: Por. gingivalis NCTC 11834; assay: MBC assay; type: cell-based, Porphyromonas gingivalis
# Procedure: as §6, §7
# [10] = system: P. acnes PRP panel strains; assay: MBC assay, panel of propionibacteria
# Procedure: (§8) This assay, normally carried out after an MIC assay, determines the minimum concentration of a compound that is lethal to the micro-organism being tested.
# (§9) These samples were then individually sub-cultured on antibiotic-free agar medium, under the incubation conditions described above. Following incubation they were examined visually for microbial growth.
# [11] = system: P. granulosum panel strains; assay: MBC assay, panel of propionibacteria
# Procedure: as §8, §9
# [12] = P. acnes PRP-002, resistance phenotype Tet/MLS
# [13] = P. acnes PRP-003, resistance phenotype Tet
# [14] = P. acnes PRP-004, resistance phenotype Tet
# [15] = P. acnes PRP-007, resistance phenotype Clin
# [16] = P. acnes PRP-008, resistance phenotype Clin
# [17] = P. acnes PRP-010, resistance phenotype MLSK
# [18] = P. acnes PRP-017, resistance phenotype MLS
# [19] = P. acnes PRP-023, resistance phenotype MLSK
# [20] = P. acnes PRP-026, resistance phenotype MLS
# [21] = P. acnes PRP-039, resistance phenotype Tet/MLS
# [22] = P. acnes PRP-046, resistance phenotype None
# [23] = P. acnes PRP-053, resistance phenotype Tet/MLS
# [24] = P. acnes PRP-059, resistance phenotype MLS
# [25] = P. acnes PRP-068, resistance phenotype Ery
# [26] = P. acnes PRP-101, resistance phenotype Tet/MLS
# [27] = P. acnes PRP-102, resistance phenotype Tet/MLS
# [28] = P. granulosum NCTC 11865, resistance phenotype None
# [29] = P. granulosum PRP-005, resistance phenotype MLSK
# [30] = P. granulosum PRP-006, resistance phenotype MLS
# [31] = P. granulosum PRP-019, resistance phenotype MLSK
# [32] = P. granulosum PRP-021, resistance phenotype MLS
# [33] = P. granulosum PRP-043, resistance phenotype MLS
# [34] = P. granulosum PRP-044, resistance phenotype MLS
# [35] = P. granulosum PRP-055, resistance phenotype None
smiles,measurement,setting,value
"CC(C)(C)c1cc(O)ccc1O [TBHQ, t-butyl-p-hydroquinone]",MIC,[1]; Table 1,7.8 µg/mL
same,MIC,"[1]; separate experiment, Table 3",7.8 µg/mL
same,activity against P. acnes NCTC 737 (in words),"[1]; compound alone, data of Tables 1 and 2",active
same,MBC,[2]; Table 1,7.8 µg/mL
same,MIC/MBC ratio,[2]; Table 1,1
same,MBC,"[2]; separate experiment, Table 3",7.8 µg/mL
same,MIC/MBC ratio,"[2]; separate experiment, Table 3",1
same,DDA (zone of inhibition diameter),[3]; Table 2,11.04 mm
same,DDA (zone of inhibition diameter),"[3]; separate experiment, Table 4",14.68 mm
same,MIC,[4]; [12],3.9 µg/mL
same,MIC,[4]; [13],7.8 µg/mL
same,MIC,[4]; [14],1.95 µg/mL
same,MIC,[4]; [15],3.9 µg/mL
same,MIC,[4]; [16],3.9 µg/mL
same,MIC,[4]; [17],3.9 µg/mL
same,MIC,[4]; [18],3.9 µg/mL
same,MIC,[4]; [19],3.9 µg/mL
same,MIC,[4]; [20],3.9 µg/mL
same,MIC,[4]; [21],3.9 µg/mL
same,MIC,[4]; [22],1.95 µg/mL
same,MIC,[4]; [23],3.9 µg/mL
same,MIC,[4]; [24],3.9 µg/mL
same,MIC,[4]; [25],3.9 µg/mL
same,MIC,[4]; [26],3.9 µg/mL
same,MIC,[4]; [27],7.8 µg/mL
same,activity against the panel of propionibacteria (in words),[4]; P. acnes and P. granulosum strains of Tables 6 and 7,active against all of the propionibacterial strains tested
same,MIC,[5]; [28],3.9 µg/mL
same,MIC,[5]; [29],62.5 µg/mL
same,MIC,[5]; [30],7.8 µg/mL
same,MIC,[5]; [31],31.25 µg/mL
same,MIC,[5]; [32],15.6 µg/mL
same,MIC,[5]; [33],15.6 µg/mL
same,MIC,[5]; [34],15.6 µg/mL
same,MIC,[5]; [35],3.9 µg/mL
same,DDA (zone diameter),[6]; P. acnes PRP-002,18.12 mm
same,DDA (zone diameter),[6]; P. acnes PRP-003,18.12 mm
same,DDA (zone diameter),[6]; P. acnes PRP-004,19.88 mm
same,DDA (zone diameter),[6]; P. acnes PRP-007,12.74 mm
same,DDA (zone diameter),[6]; P. acnes PRP-008,17.92 mm
same,DDA (zone diameter),[6]; P. acnes PRP-010,18.54 mm
same,DDA (zone diameter),[6]; P. acnes PRP-017,13.98 mm
same,DDA (zone diameter),[6]; P. acnes PRP-023,18.54 mm
same,DDA (zone diameter),[6]; P. acnes PRP-026,13.98 mm
same,DDA (zone diameter),[6]; P. acnes PRP-039,17.71 mm
same,DDA (zone diameter),[6]; P. acnes PRP-046,20.71 mm
same,DDA (zone diameter),[6]; P. acnes PRP-053,17.09 mm
same,DDA (zone diameter),[6]; P. acnes PRP-059,19.88 mm
same,DDA (zone diameter),[6]; P. acnes PRP-068,16.78 mm
same,DDA (zone diameter),[6]; P. acnes PRP-101,12.84 mm
same,DDA (zone diameter),[6]; P. acnes PRP-102,14.50 mm
same,DDA (zone diameter),[7]; P. granulosum NCTC 11865,11.50 mm
same,DDA (zone diameter),[7]; P. granulosum PRP-005,10.67 mm
same,DDA (zone diameter),[7]; P. granulosum PRP-006,9.42 mm
same,DDA (zone diameter),[7]; P. granulosum PRP-019,10.36 mm
same,DDA (zone diameter),[7]; P. granulosum PRP-021,0.00 mm
same,DDA (zone diameter),[7]; P. granulosum PRP-043,0.00 mm
same,DDA (zone diameter),[7]; P. granulosum PRP-044,0.00 mm
same,DDA (zone diameter),[7]; P. granulosum PRP-055,18.02 mm
same,MIC,[8]; Por. gingivalis NCTC 11834,<0.49 µg/mL
same,activity against Por. gingivalis NCTC 11834 (in words),"[8]; compound alone, data of Table 8",active
same,MBC,[9],0.49 µg/mL
same,MIC/MBC ratio,[9],<1
same,MBC,[10]; [12],7.8 µg/mL
same,MBC,[10]; [13],7.8 µg/mL
same,MBC,[10]; [14],7.8 µg/mL
same,MBC,[10]; [15],7.8 µg/mL
same,MBC,[10]; [16],7.8 µg/mL
same,MBC,[10]; [17],15.6 µg/mL
same,MBC,[10]; [18],7.8 µg/mL
same,MBC,[10]; [19],7.8 µg/mL
same,MBC,[10]; [20],7.8 µg/mL
same,MBC,[10]; [21],7.8 µg/mL
same,MBC,[10]; [22],7.8 µg/mL
same,MBC,[10]; [23],7.8 µg/mL
same,MBC,[10]; [24],7.8 µg/mL
same,MBC,[10]; [25],7.8 µg/mL
same,MBC,[10]; [26],7.8 µg/mL
same,MBC,[10]; [27],15.6 µg/mL
same,MBC,[11]; [28],7.8 µg/mL
same,MBC,[11]; [29],62.5 µg/mL
same,MBC,[11]; [30],7.8 µg/mL
same,MBC,[11]; [31],31.25 µg/mL
same,MBC,[11]; [32],31.25 µg/mL
same,MBC,[11]; [33],15.6 µg/mL
same,MBC,[11]; [34],31.25 µg/mL
same,MBC,[11]; [35],7.8 µg/mL
